Measured values reported in patent US7256178B2, “Physiologically active substances” (priority 2002, dated 2007).

What was measured:
[1] = Physicochemical properties: solubility
VEGF promoter = experiment: VEGF transcription inhibitory activity (VEGF-PLAP reporter, U251/1-8 cells under hypoxic conditions); type: cell-based; conditions: Homo sapiens, U-251, hypoxic (2% O2) incubator 18 hours, n=2 to 3
Source text: In order to prepare a reporter system in which transcription from a VEGF promoter is reflected, a VEGF promoter sequence was cloned and inserted into a placental alkaline phosphatase (PLAP) vector to construct a reporter vector.
In order to obtain a promoter region of human VEGF, a VEGF genome was cloned from a phage library. Based on VEGF cDNA (GenBank accession number: X62568), a PCR primer in the sequence described as SEQ ID NO: 1 or SEQ ID NO: 2 was designed to conduct PCR, thereby obtaining about a fragment of 340 bp. A human genomic phage library (human genomic library, Clontech) was screened using this fragment as a probe to obtain pUC18-VEGFA containing a VEGF5′ franking region of about 5.4 kb. This pUC18-VEGFA was cut with Kpn I/Nhe I to obtain a VEGF promoter region of about 2.3 kb, and the region was inserted into the multicloning site Kpn I/Nhe I of the placental alkaline phosphatase (PLAP) reporter vector (Goto et al., Mol. Pharmacol., 49, 860-873, 1996) to construct a VEGF-PLAP vector.
The above-described VEGF-PLAP vector was introduced into U251 cells cultured in a Dulbecco's modified Eagle's medium containing 10% fetal bovine serum (DMEM, manufactured by Sigma Co.), and cultured in the presence of 1 mg/mL G418 (Merck & Co., Inc.) to establish a G418-resistant stable clone (U251/1-8 cells).
As in a report by Minchenko et al. (Cell. Mol. Biol. Res., 40, 35-39, 1994), U251/1-8 cells were confirmed to be a reporter system which secretes PLAP into a culture medium under hypoxic conditions (2% O2 incubator), and in which transcription from a VEGF promoter is reflected. A compound inhibiting VEGF production induced by hypoxic stimulation was screened using this clone.
In order to eliminate influence of the alkali phosphatase in the serum, the U251/1-8 cells were washed with a sufficient amount of PBS (Phosphate buffered saline) twice, and treated at 65° C. for 20 minutes to inactivate the alkaline phosphatase in the serum. 4×10^4 cells/180 μL per well of the cells diluted in the DMEM culture medium containing 10% of this serum were plated in a 96-well plate.
The cells were cultured in a CO2 incubator (5% CO2) at 37° C. overnight, and 20 μL of the above-described culture solution containing the test compound at threefold serial dilutions was added. Subsequently, the cells were cultured in hypoxic (2% O2) incubator for 18 hours. To measure the PLAP activity in the culture supernatant liquid, 10 μL of the culture supernatant liquid was added to 50 μL of a 0.28 M Na2CO3—NaHCO3 buffer solution (pH 10.0, 8.0 mM MgSO4), and finally 50 μL of an alkaline phosphatase substrate (Lumistain, Genome Science Laboratories Co., Ltd.) was added thereto. After the reaction for one hour, chemiluminescence was detected using a microplate reader (PerkinElmer) to measure the PLAP activity as the alkaline phosphatase activity. The PLAP activity under normoxic conditions was defined as 0%, the PLAP activity of the cells when treated under hypoxic conditions was defined as 100%, and the concentration for inhibiting 50% of the PLAP activity was defined as the IC50 value of PLAP. The IC50 values of the 6-deoxy 11107D derivatives shown in examples were determined (n=2 to 3).

[2] = tested on: WiDr human colon cancer cells; experiment: Action of inhibiting proliferation of WiDr human colon cancer cells (MTT); type: cell-based; conditions: 72 h, three days, n=2 to 3, read-out: WiDr human colon cancer cell proliferation inhibitory activity (IC50: nM)
Protocol: 2×10^3 cells/well of WiDr human colon cancer cells cultured in a Dulbecco's modified Eagle's medium containing 10% fetal bovine serum, penicillin (100 units/mL) and streptomycin (100 μg/mL) (DMEM, manufactured by Sigma Co.) were plated in a 96-well plate. The cells were cultured in a CO2 incubator overnight, and 20 μL of the above-described culture solution containing the test compound at threefold serial dilutions was added for culturing the cells. After three days, 50 μL of a 3.3 mg/mL MTT solution was added, and the cells were further cultured for one hour. Then, formazan generated by reduction using living cells was extracted with 100 μL of DMSO to measure the absorbance (A540/A660), which was used as an index of the number of living cells.
The concentration for inhibiting 50% of proliferation of WiDr human colon cancer cells (IC50 value) of the compound of the formula (I) was determined (n=2 to 3).

[3] = Stability in an aqueous solution (HPLC); type: physicochemical; conditions: pH 7 Britton-Robinson buffer solution, 25° C., 24 hours
Protocol: The compound of the formula (I) was dissolved in DMSO at a concentration of 10 to 20 mM, and the solution was diluted with a pH 7 Britton-Robinson buffer solution to about 500-fold. This solution was used as a sample solution, and was incubated at 25° C. for 24 hours.
The sample solution before and after the incubation was analyzed using high-performance liquid chromatography to obtain a chromatogram. The percentage of the compound remaining in the sample solution after the incubation was determined from the peak area of the chromatogram.

[4] = Body weight reduction (acute toxicity) in the WiDr nude mouse test; type: in vivo; conditions: nude mice, day when body weights were lightest, relative to day of start of administration
Protocol: (§1) In order to examine the solid cancer growth inhibitory activity of the compound of the formula (I) in vivo, WiDr human colon cancer cells were subcutaneously implanted into the body of each nude mouse. […] The control group consisted of ten mice, and the 6-deoxy 11107D derivative-administration group consisted of five mice. The derivative was intravenously injected at 0.625 mg/kg/day, 1.25 mg/kg/day, 2.5 mg/kg/day, 5 mg/kg/day, or 10 mg/kg/day to each mouse of the administration group, and a vehicle was administered to each mouse of the control group.
(§2) The tumor volumes on the 15th day were measured to determine the relative tumor weight ratio (T/C %), based on the tumor weight of each mouse of the control group as 100%. The body weights on the day of the start of administration, 5th day, 8th day, 12th day and 15th (or 16th) day were measured to examine the relative body weight variations in the case of administering the representative compounds, based on the body weights on the day of the start of administration as 100%. The minimum relative body weight ratios, which are the relative body weight ratios on the day when the body weights were lightest, are shown in Table 3.

WiDr human colon tumors = experiment: Solid cancer growth inhibitory action, WiDr cells subcutaneously implanted in nude mice; type: in vivo, nude mouse; conditions: 15th day, control group as 100%
Protocol: as §1, §2

Row | Structure (SMILES) | IC50 (VEGF promoter) [nM] | IC50 [2] [nM] | Remaining percentage (%) [3] [%] | further results
1 | CCC(O)C(C)C1OC1CC(C)/C=C/C=C(\C)C1OC(=O)CC(O)CCC(C)C(OC(C)=O)/C=C/C1C (stereo not shown) [6-deoxy 11107B] | – | – | – | Solubility in organic solvents ([1]; dimethyl sulfoxide, pyridine, methanol, acetone): soluble in dimethyl sulfoxide, pyridine, methanol, and acetone; Solubility in water ([1]; water): poorly soluble in water
2 | CCC(O)C(C)C1OC1CC(C)(O)/C=C/C=C(\C)C1OC(=O)CC(O)CCC(C)C(OC(=O)N2CCN(C)CC2)/C=C/C1C (stereo not shown) [Compound 18, (8E,12E,14E)-3,16,21-trihydroxy-6,10,12,16,20-pentamethyl-7-((4-methylpiperazin-1-yl)carbonyl)oxy-18,19-epoxytricosa-8,12,14-trien-11-olide] | 1 | 0.5 | 95.0 | –
3 | CCC(O)C(C)C1OC1CC(C)(O)/C=C/C=C(\C)C1OC(=O)CC(O)CCC(C)C(OC(=O)N2CCCN(C)CC2)/C=C/C1C (stereo not shown) [Compound 19, (8E,12E,14E)-3,16,21-trihydroxy-6,10,12,16,20-pentamethyl-7-((4-methylhomopiperazin-1-yl)carbonyl)oxy-18,19-epoxytricosa-8,12,14-trien-11-olide] | 1.1 | 0.3 | 95.5 | –
4 | CCC(O)C(C)C1OC1CC(C)(O)/C=C/C=C(\C)C1OC(=O)CC(O)CCC(C)C(OC(=O)N(C)CCN(CC)CC)/C=C/C1C (stereo not shown) [Compound 20, (8E,12E,14E)-7-(N-(2-(N′,N′-diethylamino)ethyl-N-methyl)carbamoyloxy)-3,16,21-trihydroxy-6,10,12,16,20-pentamethyl-18,19-epoxytricosa-8,12,14-trien-11-olide] | 1.1 | 0.2 | 95.6 | –
5 | CCC(O)C(C)C1OC1CC(C)(O)/C=C/C=C(\C)C1OC(=O)CC(O)CCC(C)C(OC(=O)N2CCC(N3CCCCC3)CC2)/C=C/C1C (stereo not shown) [Compound 21, (8E,12E,14E)-3,16,21-trihydroxy-6,10,12,16,20-pentamethyl-7-((4-(piperidin-1-yl)piperidin-1-yl)carbonyl)oxy-18,19-epoxytricosa-8,12,14-trien-11-olide] | 2 | 0.6 | 94.8 | –
6 | CCC(O)C(C)C1OC1CC(C)(O)/C=C/C=C(\C)C1OC(=O)CC(O)CCC(C)C(OC(=O)NCCN(CC)CC)/C=C/C1C (stereo not shown) [Compound 22, (8E,12E,14E)-7-(N-(2-(N′,N′-diethylamino)ethyl)carbamoyloxy)-3,16,21-trihydroxy-6,10,12,16,20-pentamethyl-18,19-epoxytricosa-8,12,14-trien-11-olide] | 2.5 | 1.1 | 95.4 | –
7 | CCC(O)C(C)C1OC1CC(C)(O)/C=C/C=C(\C)C1OC(=O)CC(O)CCC(C)C(OC(=O)N2CCN(CC(C)(C)C)CC2)/C=C/C1C (stereo not shown) [Compound 23, (8E,12E,14E)-7-((4-(2,2-dimethylpropyl)piperazin-1-yl)carbonyl)oxy-3,16,21-trihydroxy-6,10,12,16,20-pentamethyl-18,19-epoxytricosa-8,12,14-trien-11-olide] | 14.7 | 3.8 | – | –
8 | CCC(O)C(C)C1OC1CC(C)(O)/C=C/C=C(\C)C1OC(=O)CC(O)CCC(C)C(OC(=O)N(C)C2CCN(C)CC2)/C=C/C1C (stereo not shown) [Compound 29, (8E,12E,14E)-3,16,21-trihydroxy-6,10,12,16,20-pentamethyl-7-(N-methyl-N-(1-methylpiperidin-4-yl)carbamoyloxy)-18,19-epoxytricosa-8,12,14-trien-11-olide] | 1.3 | 0.3 | – | –
9 | CCC(O)C(C)C1OC1CC(C)(O)/C=C/C=C(\C)C1OC(=O)CC(O)CCC(C)C(OC(=O)N2CCCN(C(C)C)CC2)/C=C/C1C (stereo not shown) [Compound 39, (8E,12E,14E)-3,16,21-trihydroxy-7-((4-isopropylhomopiperazin-1-yl)carbonyl)oxy-6,10,12,16,20-pentamethyl-18,19-epoxytricosa-8,12,14-trien-11-olide] | 1.3 | 0.5 | 95.9 | –
10 | CCC(O)C(C)C1OC1CC(C)(O)/C=C/C=C(\C)C1OC(=O)CC(O)CCC(C)C(OC(=O)N2CCCN(CC)CC2)/C=C/C1C (stereo not shown) [Compound 43, (8E,12E,14E)-7-((4-ethylhomopiperazin-1-yl)carbonyl)oxy-3,16,21-trihydroxy-6,10,12,16,20-pentamethyl-18,19-epoxytricosa-8,12,14-trien-11-olide] | 2.3 | 0.5 | 95.8 | Minimum relative body weight ratio ([4]; 1.25 mg/kg/day intravenously): 0.83; WiDr human colon tumor growth inhibitory activity T/C(%) (WiDr human colon tumors; 1.25 mg/kg/day intravenously): 9%
11 | CCC(O)C(C)C1OC1CC(C)(O)/C=C/C=C(\C)C1OC(=O)CC(O)CCC(C)C(OC(=O)N2CCN(C(C)C)CC2)/C=C/C1C (stereo not shown) [Compound 44, (8E,12E,14E)-3,16,21-trihydroxy-7-((4-isopropylpiperazin-1-yl)carbonyl)oxy-6,10,12,16,20-pentamethyl-18,19-epoxytricosa-8,12,14.-trien-11-olide] | 2.4 | 0.6 | 95.4 | –
12 | CCC(O)C(C)C1OC1CC(C)(O)/C=C/C=C(\C)C1OC(=O)CC(O)CCC(C)C(OC(=O)N2C[C@@H]3C[C@H]2CN3C)/C=C/C1C (stereo partly drawn) [Compound 55, (8E,12E,14E)-3,16,21-trihydroxy-6,10,12,16,20-pentamethyl-7-(((1S,4S)-5-methyl-2,5-diazabicyclo[2.2.1]heptan-2-yl)carbonyl)oxy-18,19-epoxytricosa-8,12,14-trien-11-olide] | 1.1 | 0.6 | 95.7 | Minimum relative body weight ratio ([4]; 0.625 mg/kg/day intravenously): 0.80; WiDr human colon tumor growth inhibitory activity T/C(%) (WiDr human colon tumors; 0.625 mg/kg/day intravenously): 11%
